Our source for the GI50 and IC50 values is patent US11149062B2, “HDAC inhibitors and methods of treatment using the same” (UWM Research Foundation, Inc., priority 2015, dated 2021).

Each structure is given as a SMILES string.

One assay has as its system RFX393 (renal). Briefly: MTT antiproliferative assay, RFX393. It is filed as cell-based. Particulars: MTT, 48 h; read-out: Antiproliferative Activity GI50, Renal RFX393. The protocol: Briefly, the tumor cells (1×10^4 cells/well) were seeded in 96-well microtiter plates and incubated for 24 h at 37° C. Following incubation, the media was replaced with fresh media containing the above compounds at concentrations ranging from 1 μM to 1 pM diluted in DMSO and incubated for an additional 48 h. Drugs were run in duplicate or triplicate and control cells received fresh media with DMSO concentration equivalent to the treatment groups. […] After aspirating the culture medium, 200 μL of DMSO was added to dissolve the precipitate and the resulting solution was measured for absorbance at 570 nm with a reference wavelength of 690 nm using a microplate reader (Infinite M200 Pro TECAN).

The next assay concerns the target T1, Recombinant human HDAC2 (Homo sapiens, UniProt Q92769).
T1 construct: purchased BPS Bioscience Inc
Briefly: HDAC-Glo I/II assay, HDAC2. The assay is classed as biochemical. Particulars: Class I HDAC; compounds reduced by TCEP prior to assay. The protocol:
(§1) The purified compounds of all fragments and natural product derivatives were evaluated for inhibitory effects on three different classes of HDAC proteins (class I, IIa, and IIb). […] All activity was determined by using a fluorescence-based in vitro assay. Class I HDAC proteins that were evaluated were HDAC1, HDAC2, HDAC3, HDAC8, HDAC4, and HDAC6. Class IIa HDAC protein were HDAC4 and the Class IIb HDAC protein were HDAC6.
(§2) HDAC-Glo™ I/II Assay and Screening System (Promega) was used to determine the HDAC inhibitory activity. Recombinant human HDAC1, HDAC2, HDAC3, HDAC4, HDAC6 and HDAC8 were purchased from BPS Bioscience Inc. The inhibitory activities of the test compounds against recombinant HDAC were performed according to reagent suppliers' protocols.
(§3) All test compounds were firstly dissolved in DMSO to make 10 mM stock solution. A certain amount of stock solution was diluted to 1 mM by DMSO and then reduced by tris(2-carboxyethyl)phosphine hydrochloride (TCEP) in a molar ration of 1:1.5 for 20 min at ambient temperature prior to being assayed. After reduction, a series of fivefold dilutions of each reduced compound were prepared with HDAC-Glo buffer and 25 μL of each dilution was added into a well on a 96-well plate. HDAC enzymes were diluted to the desired concentrations with HDAC-Glo buffer and 25 μL of each diluted enzyme was dispensed into a well to mix with 25 μL of testing compound at room temperature for 30-60 seconds. After the reaction mixture had been incubated at room temperature for 1 hour, 50 μL of HDAC-Glo reagent was added to each reaction well and mixed up for 30-60 seconds. Finally, the plate was incubated at room temperature for an additional 30 minutes before the luminescence was measured on a Synergy HT plate reader (Bio-Tek). The luminescence intensity data were analyzed using GraphPad Prism 5 (GraphPad Software). In the absence of any test compound, the luminescence intensity (I100) in each data set was defined as 100% activity. In the absence of both of HDAC enzymes and test compound, the luminescence intensity (I0) in each data set was defined as 0% activity. The relative activity (%) in the presence of each compound was calculated according to the following equation: % activity=(I−I0)/(I100−I0), where I=the luminescence intensity if a compound is present in the reaction. Experiments were performed in triplicate and the calculated mean values were used for plotting.

Another assay deals with T2, Recombinant human HDAC8 (Homo sapiens, UniProt Q9BY41).
T2 construct: purchased BPS Bioscience Inc
T2 sequence (Q9BY41 1-377): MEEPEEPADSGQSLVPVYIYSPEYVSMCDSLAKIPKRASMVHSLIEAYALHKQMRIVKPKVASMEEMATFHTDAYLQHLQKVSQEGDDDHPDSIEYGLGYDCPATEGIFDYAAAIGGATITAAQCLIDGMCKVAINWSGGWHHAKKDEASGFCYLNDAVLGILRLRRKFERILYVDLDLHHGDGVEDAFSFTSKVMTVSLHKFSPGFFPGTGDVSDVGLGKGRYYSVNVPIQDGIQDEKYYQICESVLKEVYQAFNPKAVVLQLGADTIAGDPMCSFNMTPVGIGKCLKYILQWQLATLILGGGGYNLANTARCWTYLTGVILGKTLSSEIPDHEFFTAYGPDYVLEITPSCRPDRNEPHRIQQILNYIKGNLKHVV
Kind of assay: HDAC-Glo I/II assay, HDAC8. The assay is classed as biochemical. The following applies: Class I HDAC; compounds reduced by TCEP prior to assay. The protocol:
as §1, §2, §3

The next assay addresses T3, Recombinant human HDAC4 (Homo sapiens, UniProt P56524).
T3 construct: purchased BPS Bioscience Inc
Briefly: HDAC-Glo I/II assay, HDAC4. It is filed as biochemical. Particulars: Class IIa HDAC; compounds reduced by TCEP prior to assay; read-out: IC50 of HDAC4. The protocol:
as §1, §2, §3

T1 sequence (Q92769 whole entry): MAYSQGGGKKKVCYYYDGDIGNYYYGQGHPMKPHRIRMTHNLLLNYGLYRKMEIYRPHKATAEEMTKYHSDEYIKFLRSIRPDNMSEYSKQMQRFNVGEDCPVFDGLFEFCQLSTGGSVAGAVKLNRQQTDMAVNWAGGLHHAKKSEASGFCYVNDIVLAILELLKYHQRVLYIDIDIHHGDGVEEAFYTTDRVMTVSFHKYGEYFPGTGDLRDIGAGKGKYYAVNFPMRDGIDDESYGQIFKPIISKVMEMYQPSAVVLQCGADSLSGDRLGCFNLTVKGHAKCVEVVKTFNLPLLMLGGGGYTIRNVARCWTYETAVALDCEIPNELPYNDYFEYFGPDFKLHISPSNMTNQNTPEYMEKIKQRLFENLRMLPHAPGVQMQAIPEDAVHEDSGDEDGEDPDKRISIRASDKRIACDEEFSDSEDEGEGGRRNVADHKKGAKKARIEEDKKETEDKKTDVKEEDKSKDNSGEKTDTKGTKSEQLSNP
T3 sequence (P56524 whole entry): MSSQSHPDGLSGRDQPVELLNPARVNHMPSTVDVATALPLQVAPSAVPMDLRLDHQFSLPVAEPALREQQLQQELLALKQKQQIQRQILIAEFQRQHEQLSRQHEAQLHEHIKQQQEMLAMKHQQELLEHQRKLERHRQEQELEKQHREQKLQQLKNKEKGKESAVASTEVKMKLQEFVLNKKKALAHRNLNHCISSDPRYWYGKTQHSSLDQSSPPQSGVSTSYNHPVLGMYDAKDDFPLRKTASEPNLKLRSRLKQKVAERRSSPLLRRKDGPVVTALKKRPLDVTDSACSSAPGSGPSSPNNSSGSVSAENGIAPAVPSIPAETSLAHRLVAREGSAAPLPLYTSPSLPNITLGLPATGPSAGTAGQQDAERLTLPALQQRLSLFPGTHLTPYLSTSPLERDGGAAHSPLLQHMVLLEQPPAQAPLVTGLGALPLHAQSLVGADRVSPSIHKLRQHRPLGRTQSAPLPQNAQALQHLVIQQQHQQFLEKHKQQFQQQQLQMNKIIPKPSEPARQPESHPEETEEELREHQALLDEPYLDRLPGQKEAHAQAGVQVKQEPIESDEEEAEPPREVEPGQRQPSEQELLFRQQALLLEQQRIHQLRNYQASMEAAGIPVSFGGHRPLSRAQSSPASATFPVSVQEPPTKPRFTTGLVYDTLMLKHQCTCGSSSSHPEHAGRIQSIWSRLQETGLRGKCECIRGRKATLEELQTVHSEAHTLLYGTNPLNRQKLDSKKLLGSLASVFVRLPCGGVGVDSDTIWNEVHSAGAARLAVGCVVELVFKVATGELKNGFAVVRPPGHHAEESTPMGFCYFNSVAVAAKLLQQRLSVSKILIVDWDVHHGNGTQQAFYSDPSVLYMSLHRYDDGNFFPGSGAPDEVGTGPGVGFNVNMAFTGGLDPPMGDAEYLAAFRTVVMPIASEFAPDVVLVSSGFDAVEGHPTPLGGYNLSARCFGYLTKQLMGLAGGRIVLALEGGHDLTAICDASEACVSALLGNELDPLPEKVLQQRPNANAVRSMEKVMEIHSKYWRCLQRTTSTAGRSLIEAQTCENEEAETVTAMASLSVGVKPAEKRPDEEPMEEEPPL

Take `COC(=O)[C@H]1CSSCC/C=C/C(O)CC(=O)N[C@H](CCSC)C(=O)N1` (stereo partly drawn) [TDF3m, Methyl (4S,7R,12E)-11-hydroxy-7-[2-(methylsulfanyl)ethyl]-6,9-dioxo-1,2-dithia-5,8-diazacyclopentadec-12-ene-4-carboxylate]: in the assay on RFX393 (renal), the GI50 was 0.3 µM. Further, the IC50 on Recombinant human HDAC2 was 0.0942 µM; at Recombinant human HDAC8, 63 µM; at Recombinant human HDAC4, greater than 1000 µM.
The like results for `CSCC[C@H]1NC(=O)CC(O)/C=C/CCSSC[C@H](C(=O)O)NC1=O` (stereo partly drawn) [TDF3, (4S,7R,12E)-11-hydroxy-7-[2-(methylsulfanyl)ethyl]-6,9-dioxo-1,2-dithia-5,8-diazacyclopentadec-12-ene-4-carboxylic acid] were, in that order, 0.2 µM, 0.0875 µM, 62.8 µM and greater than 1000 µM.
